From patent US12077503B2, “Substituted cyclic amides and their use as herbicides” (FMC CORPORATION, priority 2015, dated 2024)

What was measured:
[1] = system: ryegrass, Italian (Italian ryegrass, Lolium multiflorum); assay: Test A preemergence; assay type: in vivo; conditions: Lolium multiflorum, pre-emergence, 240 h, 0 to 100 scale (0 no effect, 100 complete control), read-out: Plant response rating, Ryegrass, Italian; for pest or weed control at 500 g/ha: 500 g ai/ha, preemergence; for pest or weed control at 125 g/ha: Preemergence, 125 g ai/ha
Method in brief: (§1)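 Visual injury, scored on a 0–100 scale relative to untreated controls, was recorded about 10 d after application. Treatments were a preemergence soil spray over planted seeds or a postemergence spray on plants at the one- to two-leaf stage, 2 to 10 cm tall, all in loam soil–sand blend in the greenhouse.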

[2] = system: giant foxtail (Setaria faberii); assay: Test A preemergence; assay type: in vivo; conditions: Setaria faberi, pre-emergence, 240 h, 0 to 100 scale (0 no effect, 100 complete control), read-out: Plant response rating, Foxtail, Giant; for pest or weed control at 500 g/ha: 500 g ai/ha, preemergence; for pest or weed control at 125 g/ha: Preemergence, 125 g ai/ha
Method in brief: as §1

Kochia (Kochia scoparia) = assay: Test A preemergence; assay type: in vivo; conditions: Bassia scoparia, pre-emergence, 240 h, 0 to 100 scale (0 no effect, 100 complete control), read-out: Plant response rating, Kochia; for pest or weed control at 500 g/ha: 500 g ai/ha, preemergence; for pest or weed control at 125 g/ha: Preemergence, 125 g ai/ha
Method in brief: as §1

[3] = system: ragweed (common ragweed, Ambrosia elatior); assay: Test A preemergence; assay type: in vivo; conditions: Ambrosia artemisiifolia, pre-emergence, 240 h, 0 to 100 scale (0 no effect, 100 complete control), read-out: Plant response rating, Ragweed; for pest or weed control at 500 g/ha: 500 g ai/ha, preemergence; for pest or weed control at 125 g/ha: Preemergence, 125 g ai/ha
Method in brief: as §1

[4] = system: pigweed (Amaranthus retroflexus); assay: Test A preemergence; assay type: in vivo; conditions: Amaranthus retroflexus, pre-emergence, 240 h, 0 to 100 scale (0 no effect, 100 complete control), read-out: Plant response rating, Pigweed; for pest or weed control at 500 g/ha: 500 g ai/ha, preemergence; for pest or weed control at 125 g/ha: Preemergence, 125 g ai/ha
[5] = system: barnyardgrass (Echinochloa crus-galli); assay: Test A preemergence; assay type: in vivo; conditions: Echinochloa crus-galli, pre-emergence, 240 h, 0 to 100 scale (0 no effect, 100 complete control), read-out: Plant response rating, Barnyardgrass; for pest or weed control at 500 g/ha: 500 g ai/ha, preemergence; for pest or weed control at 125 g/ha: Preemergence, 125 g ai/ha
Method in brief: as §1

melting point [°C]	SMILES	pest or weed control at 500 g/ha [1] [%]	pest or weed control at 125 g/ha [1] [%]	pest or weed control at 500 g/ha [2] [%]	pest or weed control at 125 g/ha [2] [%]	pest or weed control at 500 g/ha (Kochia (Kochia scoparia)) [%]	pest or weed control at 125 g/ha (Kochia (Kochia scoparia)) [%]	pest or weed control at 500 g/ha [3] [%]	pest or weed control at 125 g/ha [3] [%]	pest or weed control at 500 g/ha [4] [%]	pest or weed control at 125 g/ha [4] [%]	pest or weed control at 500 g/ha [5] [%]	pest or weed control at 125 g/ha [5] [%]
156 to 160	Cc1c(F)cccc1NC(=O)[C@H]1C(=O)N(C)C[C@@H]1c1ccc(C(F)(F)F)cc1 [Compound 1386]	70	50	90	90	90	80	80	60	90	80	100	90
154 to 158	O=C1NC[C@H](c2nccc(C(F)(F)F)n2)[C@H]1C(=O)Nc1cccc(F)c1F [Compound 1392]	0	0	60	0	0	0	0	0	0	0	60	0
